Where two headings read alike, the source gives them in different places.
Columns and labels:
[1] = tested on: KRAS G12V mutant NCI-H727 cells; test: Proliferation inhibition of NCI-H727 cells, 3D CellTiter-Glo assay (Method B); type: cell-based, human; settings: Method B, 3D culture with 0.65% methylcellulose, 5 days, CTG, read-out: NCI-H727 IC50/nM
Summary of the method: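 Cells grown in 3D medium (RPMI-1640, 10% FBS, 0.65% methylcellulose) overnight, then treated 5 days at 37 °C, 5% CO2 with 9 threefold dilutions from 10 µM top working concentration, duplicate wells. CellTiter-Glo luminescence read; IC50 (nM) fitted by dose-response-inhibition equation.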

[2] = tested on: KRAS G12D mutant AGS cells; test: Proliferation inhibition of AGS cells, CellTiter-Glo assay; type: cell-based, human
Summary of the method: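 AGS cells at 1500 cells/well in F12K + 10% FBS were exposed for 3 days at 37°C to nine 3-fold dilutions from 10 µM top concentration, in duplicate. Viability read by CellTiter-Glo luminescence; IC50 (nM) from dose-response-inhibition fitting.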

[3] = tested on: KRAS G12S mutant A549 cells; test: Proliferation inhibition of A549 cells, 3D CellTiter-Glo assay; type: cell-based; settings: Homo sapiens, A549, 120 h, read-out: A549 IC50/nM
Method: A549 cells (Nanjing Kebai Biotechnology Co., Ltd., catalog number CBP60084, adherent, culture medium (F12K Nutrient Mixture+10%FBS (GIBCO, Cat#10091-148) at 37°C, 5%CO2, and 95% humidity.
3D Cell Viability Assay: Cells in the logarithmic growth phase were harvested and counted using a platelet counter. Cell viability was assessed using the trypan blue exclusion method to ensure a viability of over 90%. The 3D cell culture medium was prepared by adding 1% MC (methylcellulose, Sigma, Cat#M0512) F-12K medium and 10% FBS. The cell concentration was adjusted to approximately 7407 cells/mL using the 3D medium, and the methylcellulose (MC) content was set to 0.65%. Then, 135 µL of cell suspension was added to each 96-well clear, flat-bottomed, black-walled plate (Greiner, Cat#655096). The cells in the 96-well plates were cultured overnight at 37°C with 5% CO2.
Drug preparation for IC50 assay: A 10-fold drug solution was prepared using culture medium. […] of the drug solution was added to each well of a 96-well plate seeded with cells to achieve a working concentration of up to 10 µM, with a 3× dilution, and 9 concentrations. 2 replicate wells for each drug concentration were set. The cells in the drug-treated 96-well plates were cultured at 37°C and 5% CO^2 for additional5 days, then CTG assay (CellTiter-Glo® Luminescent Cell Viability Assay (Promega, Cat#G7573)) were performed.
The cell plate was equilibrated to room temperature for 30 minutes and the CTG reagent was thawed. 75 µL of CTG solution was added to each well for detection, and the plate was shaken on an orbital shaker for 5 minutes to lyse the cells. The cell plate was placed at room temperature for 25 minutes to stabilize the cryo-luminescence signal and the cryo-luminescence value was read (EnVision® multi-plate reader, PerkinElmer#2105).
Data was analyzed using GraphPad Prism software. The dose-response-inhibition equation was used to fit the data to obtain the dose-response curve, and the IC50 value (nM) was calculated accordingly. [formula]

[4] = Homo sapiens, AGS, 72 h, 3 days, CTG, read-out: AGS IC50/nM
[5] = 3 days, CTG, read-out: AGS IC50/nM

SMILES | IC50 ([1]; Homo sapiens, NCI-H727, 120 h) [nM] | IC50 [2, 4] [nM] | IC50 [3] [nM] | IC50 ([2]; Homo sapiens, AGS, 72 h, read-out: AGS IC50/nM, 3 days, CTG) [nM] | IC50 [1] [nM] | IC50 [2, 5] [nM]
CN1CC/C(=C\F)[C@](C)(COc2nc(N3CCOC[C@@](C)(O)C3)c3cc(C(F)(F)F)c(-c4cccc5sc(N)c(C#N)c45)c(F)c3n2)C1 (atropisomer, axis not shown) [Example 6A, (S)-2-amino-4-(8-fluoro-2-(((S,E)-4-(fluoromethylene)-1,3-dimethylpiperidine-3-yl)methoxy)-4-((S)-6-hydroxy-6-methyl-1,4-oxazol-4-yl)-6-(trifluoromethyl)quinazoline-7-yl)benzo[b]thiophene-3-carbonitrile] | 1.6 | 4.7 | 35.1 |  |  | 
CCc1cc2c(N3Cc4cc(C(=O)N(C)C)nn4CC[C@@H]3C)nc(OC[C@]3(C)CN(C)CC/C3=C\F)nc2c(F)c1-c1c(F)ccc2sc(N)c(C#N)c12 (single isomer, unassigned) [Example 164A] | < 1.5 | < 1.5 | 48 |  |  | 
[2H]C([2H])([2H])N1CC/C(=C\F)[C@](C)(COc2nc(N3CCCn4nc(C(=O)N(C)C)cc4C3)c3cc(C(F)(F)F)c(-c4c(F)ccc5sc(N)c(C#N)c45)c(F)c3n2)C1 (atropisomer, axis not shown) [Example 68A] | 2.4 | < 1.5 | 41.8 |  |  | 
CN1CC/C(=C\F)[C@](C)(COc2nc(N3CCCn4nc(C(=O)N(C)C)c(Cl)c4C3)c3cc(C(F)(F)F)c(-c4cccc5sc(N)c(C#N)c45)c(F)c3n2)C1 [Example 124] | 2.2 | < 1.5 | 23.9 |  |  | 
CCc1cc2c(N3CCCn4nc(C(=O)N(C)C)c(Cl)c4C3)nc(OC[C@]3(C)CN(C)CC/C3=C\F)nc2c(F)c1-c1c(F)ccc2sc(N)c(C#N)c12 (single isomer, unassigned) [Example 163A] | 3.3 |  | 86.9 | < 1.52 |  | 
[2H]C([2H])([2H])N1CC[C@H](C(F)F)[C@](C)(COc2nc(N3CCOC[C@@](C)(O)C3)c3cc(C(F)(F)F)c(-c4c(F)ccc5sc(N)c(C#N)c45)c(F)c3n2)C1 [Example 65A] |  | 1.5 | 26.1 |  |  | 
CN1CC/C(=C\F)[C@](C)(COc2nc(N3CCCn4nc(C(=O)N(C)C)c(C#N)c4C3)c3cc(C(F)(F)F)c(-c4c(F)ccc5sc(N)c(C#N)c45)c(F)c3n2)C1 [Example 150] | < 1.5 | < 1.5 | 40.3 |  |  | 
CCc1cc2c(N3Cc4cc(C(=O)N(C)C)nn4CC[C@@H]3C)nc(OC[C@]3(C)CN(CC)CC[C@@H]3C(F)F)nc2c(F)c1-c1c(F)ccc2sc(N)c(C#N)c12 (single isomer, unassigned) [Example 176A] | < 1.5 | < 1.5 | 42.6 |  |  | 
CCN1CCC(=CF)C(C)(COc2nc(N3Cc4cc(C(=O)N(C)C)nn4CCC3C)c3cc(Cl)c(-c4c(C#N)c(N)cc(C)c4C(F)(F)F)c(C)c3n2)C1 (stereo not drawn) [Example 221] | 71.8 | 103 |  |  |  | 
[2H]C([2H])([2H])N1CC[C@H](C(F)F)[C@](C)(COc2nc(N3CCCn4nc(C(=O)N(C)C)cc4C3)c3cc(C(F)(F)F)c(-c4c(F)ccc5sc(N)c(C#N)c45)c(F)c3n2)C1 [Example 67, 5-(7-(2-Amino-3-cyano-5-fluorobenzo[b]thiophene-4-yl)-2-(((3S,4S)-4-(difluoromethyl)-3-methyl-1-(methyl-d3)piperidine-3-yl)methoxy)-8-fluoro-6-(trifluoromethyl)quinazoline-4-yl)-N,N-dimethyl-5,6,7,8-tetrahydro-4H-pyrazolo[1,5-a][1,4]diazepine-2-formamide] | 6.3 | 1.75 |  |  |  | 
CCN1CC/C(=C\F)[C@](C)(COc2nc(N3Cc4cc(C(=O)N(C)C)nn4CC[C@@H]3C)c3cc(Cl)c(-c4c(F)ccc5sc(N)c(C#N)c45)c(C(F)F)c3n2)C1 (single isomer, unassigned) [Example 242A] | 6.3 | 5.4 |  |  |  | 
CN1CC[C@H](C(F)F)[C@](C)(COc2nc(N3CCCn4nc(C(=O)N(C)C)cc4C3)c3cc(C(F)(F)F)c(-c4cccc5sc(N)c(C#N)c45)c(F)c3n2)C1 [Example 7, 5-(7-(2-Amino-3-cyanobenzo[b]thiophene-4-yl)-2-(((3S,4S)-4-(difluoromethyl)-1,3-dimethylpiperidine-3-yl)methoxy)-8-fluoro-6-(trifluoromethyl)quinazoline-4-yl)-N,N-dimethyl-5,6,7,8-tetrahydro-4H-pyrazolo[1,5-a][1,4]diazepine-2-formamide] | 13.1 | 6.7 |  |  |  | 
CN1CC[C@H](C(F)F)[C@](C)(COc2nc(N3CCOC[C@@](C)(O)C3)c3cc([N+](=O)[O-])c(-c4cccc5sc(N)c(C#N)c45)c(F)c3n2)C1 (atropisomer, axis not shown; (Ra)) [Example 86A] |  |  |  |  | 1.9 | 4.9
CCN1CC/C(=C\F)[C@](C)(COc2nc(N3Cc4c(OC)c(C(=O)N(C)C)nn4CC[C@@H]3C)c3cc(Cl)c(-c4c(F)ccc5sc(N)c(C#N)c45)c(F)c3n2)C1 (single isomer, unassigned) [Example 234A] | < 1.5 | < 1.5 |  |  |  | 
CCN1CC/C(=C\F)[C@](C)(COc2nc(N3Cc4c(COC)c(C(=O)N(C)C)nn4CC[C@@H]3C)c3cc(Cl)c(-c4ncc(F)c5sc(N)c(C#N)c45)c(F)c3n2)C1 [Example 271A] | 8.7 | 9.3 |  |  |  | 
[2H]C([2H])([2H])N1CC/C(=C\F)[C@](C)(COc2nc(N3CCCn4nc(C(=O)N(C)C)cc4C3)c3cc(C(F)(F)F)c(-c4c(F)ccc5sc(N)c(C#N)c45)c(F)c3n2)C1 [Example 68, 5-(7-(2-amino-3-cyano-5-fluorobenzo[b]thiophene-4-yl)-8-fluoro-2-(((S,E)-4-(fluoromethylene)-3-methyl-1-(methyl-d3)piperidine-3-yl)methoxy)-6-(trifluoromethyl)quinazoline-4-yl)-N,N-dimethyl-5,6,7,8-tetrahydro-4H-pyrazolo[1,5-a][1,4]diazepine-2-formamide] | 6.4 | 1.9 |  |  |  | 
CN1CC/C(=C\F)[C@](C)(COc2nc(N3CCCn4nc(C(=O)N(C)C)cc4C3)c3cc(Cl)c(-c4c(F)ccc5sc(N)c(C#N)c45)c(F)c3n2)C1 (atropisomer, axis not shown; (Sa)) [Example 93B, (Sa)-5-(7-(2-amino-3-cyano-5-fluorobenzo[b]thiophene-4-yl)-6-chloro-8-fluoro-2-(((S,E)-4-(fluoromethylene)-1,3-dimethylpiperidine-3-yl)methoxy)quinazoline-4-yl)-N,N-dimethyl-5,6,7,8-tetrahydro-4H-pyrazolo[1,5-a][1,4]diazepine-2-formamide·formate] |  |  |  |  | 191 | 178
CN1CC/C(=C\F)[C@](C)(COc2nc(N3CCCn4nc(C(=O)N(C)C)cc4C3)c3cc(Cl)c(-c4cccc5sc(N)c(C#N)c45)c(F)c3n2)C1 (atropisomer, axis not shown; (Sa)) [Example 94A, (Sa)-5-(7-(2-amino-3-cyanobenzo[b]thiophene-4-yl)-6-chloro-8-fluoro-2-(((S,E)-4-(fluoromethylene)-1,3-dimethylpiperidine-3-yl)methoxy)quinazoline-4-yl)-N,N-dimethyl-5,6,7,8-tetrahydro-4H-pyrazolo[1,5-a][1,4]diazepine-2-formamide·formate] | 9 | 3.3 |  |  |  | 
CCN1CC/C(=C\F)[C@](C)(COc2nc(N3Cc4cc(C(=O)N(C)C)nn4CC[C@@H]3C)c3cc(Cl)c(-c4nccc5sc(N)c(C#N)c45)c(C)c3n2)C1 [Example 276A] | 33.4 | 18.5 |  |  |  | 
CCN1CCC(=CF)C(C)(COc2nc(N3Cc4cc(C(=O)N(C)CCF)nn4CCC3C)c3cc(Cl)c(-c4c(F)ccc5sc(N)c(C#N)c45)c(F)c3n2)C1 (stereo not drawn) [Example 264A] | 2.8 | 2.3 |  |  |  | 
CCN1CC/C(=C\F)[C@](C)(COc2nc(N3Cc4cc(C(=O)N5CC(F)C5)nn4CC[C@@H]3C)c3cc(Cl)c(-c4c(F)ccc5sc(N)c(C#N)c45)c(F)c3n2)C1 [Example 277A] | 1.8 | < 1.5 |  |  |  | 
CCC1CCn2nc(C(=O)N(C)C)cc2CN1c1nc(OCC2(C)CN(CC)CCC2=CF)nc2c(F)c(-c3c(F)ccc4sc(N)c(C#N)c34)c(Cl)cc12 (stereo not drawn) [Example 250A] | < 1.5 | < 1.5 |  |  |  | 
